Positions of bridges follow the written chain, without caps; N, C: chain ends. Non-standard residues stand in square brackets, D forms with d. Residues, ends and D or L forms follow the SMILES beside them. Chains are numbered I, II in the order given. 2Nal = N[C@@H](Cc1ccc2ccccc2c1)C(=O)O; Lys(iPr) = CC(C)NCCCC[C@H](N)C(=O)O
Assays:
CXCR4 T117A = target: T1, CXCR4 T117A (Homo sapiens, UniProt P61073, T117A); experiment: Competitive binding to CXCR4 mutant T117A (12G5, CHO cells); details: TM3, class of reduction vs wild-type CXCR4, 12G5 competition, averages of at least three independent experiments
T1 construct: expressed in transfected cells
Method: (§1) Plasmid pcDNA3-CXCR4 and mutated pcDNA3-CXCR4 were extracted and transfected into CHO cells using Lipofectamine 2000 according to the manufacturer’s guidelines. The selective medium containing G418 at a concentration of 1.2 mg/ml was applied to isolate stably transfected cells. CHO cells expressing wild-type CXCR4 and mutant CXCR4 were obtained using fluorescence-activated cell sorting (FACS).
(§2) All of the CXCR4 mutants were prepared using PCR technology. Briefly, pairs of asymmetrical primers containing the desired amino acid mutations (Supplementary Tables S1 and S2), each complementary to opposite strands of the pcDNA3–CXCR4, were designed for amplification by Q5® High-Fidelity DNA polymerase and the generation of mutated constructs. The methylated pcDNA3–CXCR4 templates were digested by DpnI. The mutated pcDNA3–CXCR4 was transformed into competent E. coli TOP10 for long-term storage and amplification.
(§3) The procedure for the CXCR4 competitive binding experiments was published previously. Briefly, CXCR4 antibody 12G5 (250 ng/ml) was incubated with 5 × 10^5 cells and varying concentrations of unlabeled compounds in a final volume of 100 μl of assay buffer (PBS with 0.5% BSA and 0.05% NaN3) in 96-well plates for 40 min on ice, after being washed with assay buffer once. The cells were incubated with FITC-conjugated second antibody IgG for 30 min on ice, then washed with assay buffer three times. The fluorescence intensity was measured for excitation at 485 nm and emission at 535 nm using multimode plate reader (PerkinElmer). The IC50 values were calculated using graphpad Prism 7. Experiments were performed at least three times.

CXCR4 D171A = target: T2, CXCR4 D171A (Homo sapiens, UniProt P61073, D171A); experiment: Competitive binding to CXCR4 mutant D171A (12G5, CHO cells); details: TM4, class of reduction vs wild-type CXCR4, 12G5 competition, averages of at least three independent experiments
T2 construct: expressed in transfected cells
Method: as §1, §2, §3

CXCR4 E288Q = target: T3, CXCR4 E288Q (Homo sapiens, UniProt P61073, E288Q); experiment: Competitive binding to CXCR4 mutant E288Q (12G5, CHO cells); details: TM7, class of reduction vs wild-type CXCR4, 12G5 competition, averages of at least three independent experiments
T3 construct: expressed in transfected cells
Method: as §1, §2, §3

CXCR4 Y45A = target: T4, CXCR4 Y45A (Homo sapiens, UniProt P61073, Y45A); experiment: Competitive binding to CXCR4 mutant Y45A (12G5, CHO cells); details: TM1, class of reduction vs wild-type CXCR4, 12G5 competition, averages of at least three independent experiments
T4 construct: expressed in transfected cells
Method: as §1, §2, §3

CXCR4 [1] = target: CXCR4 (Homo sapiens, UniProt P61073); experiment: Competitive CXCR4 binding assay (12G5 antibody probe), wild-type CXCR4 transfected CHO cells; design: expressed in transfected cells; Competitive receptor binding activity, wild-type CXCR4 (WT): key to the marks not given beside the values; details: for Competitive receptor binding activity, wild-type CXCR4 (WT): class relative to wild-type, 12G5 competition, stably transfected CHO cells, averages of at least three independent experiments
Method: The CXCR4-specific antibody, 12G5 was used as a probe for the competitive CXCR4 binding assay to evaluate the binding activity of CXCR4 antagonists.
Figure 1 Competitive CXCR4 binding curves of eleven CXCR4 antagonists The CXCR4 transfected CHO cells were incubated with different concentrations of antagonists and 250 ng/ml 12G5 antibody. The CXCR4-binding 12G5 antibody was recognized by FITC-conjugated anti-IgG second antibody. The cells treated with only second antibody were used as a negative control (0%) while cells treated with both 12G5 antibody and second antibody were used as a positive control (100%). Cells treated with CXCR4 antagonists were calculated in percentage relative to the positive and negative controls. The data were averages of at least three independent experiments and shown as mean ± standard error of the mean (S.E.M.).
as §3

CXCR4 D262N = target: T5, CXCR4 D262N (Homo sapiens, UniProt P61073, D262N); experiment: Competitive binding to CXCR4 mutant D262N (12G5, CHO cells); details: TM6, class of reduction vs wild-type CXCR4, 12G5 competition, averages of at least three independent experiments
T5 construct: expressed in transfected cells
Method: as §1, §2, §3

CXCR4 Q200A = target: T6, CXCR4 Q200A (Homo sapiens, UniProt P61073, Q200A); experiment: Competitive binding to CXCR4 mutant Q200A (12G5, CHO cells); design: key to the marks not given beside the values; details: TM5, class of reduction vs wild-type CXCR4, 12G5 competition, averages of at least three independent experiments
T6 construct: expressed in transfected cells
Method: as §1, §2, §3

CXCR4 W195A = target: T7, CXCR4 W195A (Homo sapiens, UniProt P61073, W195A); experiment: Competitive binding to CXCR4 mutant W195A (12G5, CHO cells); details: TM4, class of reduction vs wild-type CXCR4, 12G5 competition, averages of at least three independent experiments
T7 construct: expressed in transfected cells
Method: as §1, §2, §3

CXCR4 E288A = target: T8, CXCR4 E288A (Homo sapiens, UniProt P61073, E288A); experiment: Competitive binding to CXCR4 mutant E288A (12G5, CHO cells); details: TM7, class of reduction vs wild-type CXCR4, 12G5 competition, averages of at least three independent experiments
T8 construct: expressed in transfected cells
Method: as §1, §2, §3

CXCR4 E288D = target: T9, CXCR4 E288D (Homo sapiens, UniProt P61073, E288D); experiment: Competitive binding to CXCR4 mutant E288D (12G5, CHO cells); details: TM7, class of reduction vs wild-type CXCR4, 12G5 competition, averages of at least three independent experiments
T9 construct: expressed in transfected cells
Method: as §1, §2, §3

CXCR4 I259A = target: T10, CXCR4 I259A (Homo sapiens, UniProt P61073, I259A); experiment: Competitive binding to CXCR4 mutant I259A (12G5, CHO cells); design: key to the marks not given beside the values; details: TM6, class of reduction vs wild-type CXCR4, 12G5 competition, averages of at least three independent experiments
T10 construct: expressed in transfected cells
Method: as §1, §2, §3

CXCR4 [2] = details: cited from earlier work
Excerpt: To understand the receptor–ligand recognition mechanism involving CXCR4 and its antagonists, here in this study we conducted a series of comparative analyses of the biological activities and CXCR4 binding sites of eleven known CXCR4 antagonists, including the three mentioned above, using cell-based bioassays, CXCR4 site-directed mutagenesis and computer-aided molecular modeling. These antagonists studied here were chosen from different representative structural types including both D-peptides (i.e., HC4319, DV1, DV1 dimer, and DV3) and a representative counterpart L-peptide (i.e., V1) derived ...

CXCR4 N119A = target: T11, CXCR4 N119A (Homo sapiens, UniProt P61073, N119A); experiment: Competitive binding to CXCR4 mutant N119A (12G5, CHO cells); details: TM3, class of reduction vs wild-type CXCR4, 12G5 competition, averages of at least three independent experiments
T11 construct: expressed in transfected cells
Method: as §1, §2, §3

CXCR4 (Homo sapiens, UniProt P61073), sequence (P61073 whole entry): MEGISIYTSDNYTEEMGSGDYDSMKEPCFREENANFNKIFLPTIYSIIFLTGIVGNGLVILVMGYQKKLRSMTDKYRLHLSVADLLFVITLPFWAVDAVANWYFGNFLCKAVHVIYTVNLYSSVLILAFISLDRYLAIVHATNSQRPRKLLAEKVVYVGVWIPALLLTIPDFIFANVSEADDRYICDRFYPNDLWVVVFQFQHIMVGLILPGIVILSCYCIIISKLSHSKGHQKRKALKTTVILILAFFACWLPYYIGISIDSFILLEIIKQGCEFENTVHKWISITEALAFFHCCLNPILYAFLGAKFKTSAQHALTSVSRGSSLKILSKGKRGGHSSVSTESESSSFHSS
T7 sequence (P61073 whole entry W195A): as the sequence (P61073 whole entry) above, with W195A counted along it
T1 sequence (P61073 whole entry T117A): as the sequence (P61073 whole entry) above, with T117A counted along it
T4 sequence (P61073 whole entry Y45A): as the sequence (P61073 whole entry) above, with Y45A counted along it
T5 sequence (P61073 whole entry D262N): as the sequence (P61073 whole entry) above, with D262N counted along it
T3 sequence (P61073 whole entry E288Q): as the sequence (P61073 whole entry) above, with E288Q counted along it
T6 sequence (P61073 whole entry Q200A): as the sequence (P61073 whole entry) above, with Q200A counted along it
T10 sequence (P61073 whole entry I259A): as the sequence (P61073 whole entry) above, with I259A counted along it
T2 sequence (P61073 whole entry D171A): as the sequence (P61073 whole entry) above, with D171A counted along it
T11 sequence (P61073 whole entry N119A): as the sequence (P61073 whole entry) above, with N119A counted along it
T9 sequence (P61073 whole entry E288D): as the sequence (P61073 whole entry) above, with E288D counted along it
T8 sequence (P61073 whole entry E288A): as the sequence (P61073 whole entry) above, with E288A counted along it

Row | IC50 (CXCR4 [1]; CXCR4 transfected CHO cells, 250 ng/ml 12G5, 40 min on ice, FITC second antibody, mean ± S.E.M. of at least three independent experiments, SEM, read-out: IC50 (nM), inhibition of 12G5 binding to CXCR4) [nM] | SMILES | Competitive receptor binding activity, CXCR4 T117A (CXCR4 T117A) | Competitive receptor binding activity, CXCR4 D171A (CXCR4 D171A) | Competitive receptor binding activity, CXCR4 E288Q (CXCR4 E288Q) | Competitive receptor binding activity, CXCR4 Y45A (CXCR4 Y45A) | Competitive receptor binding activity, wild-type CXCR4 (WT) (CXCR4 [1]) | Competitive receptor binding activity, CXCR4 D262N (CXCR4 D262N) | Competitive receptor binding activity, CXCR4 Q200A (CXCR4 Q200A) | Competitive receptor binding activity, CXCR4 W195A (CXCR4 W195A) | Competitive receptor binding activity, CXCR4 E288A (CXCR4 E288A) | Competitive receptor binding activity, CXCR4 E288D (CXCR4 E288D) | Competitive receptor binding activity, CXCR4 I259A (CXCR4 I259A) | Binding affinity (in words) (CXCR4 [2]) | Competitive receptor binding activity, CXCR4 N119A (CXCR4 N119A)
1 |  | CC(C)C[C@@H](N)C(=O)NCC(=O)N[C@H](C)C(=O)N[C@H](CO)C(=O)N[C@H](Cc1c[nH]c2ccccc12)C(=O)N[C@H](Cc1c[nH]cn1)C(=O)N[C@H](CCCNC(=N)N)C(=O)N1CCC[C@@H]1C(=O)N[C@H](CC(=O)O)C(=O)N[C@H](CCCCN)C(=O)NCCCC[C@@H](NC(=O)[C@H]1CCCN1C(=O)[C@@H](CC(C)C)NC(=O)[C@H]1CCCN1C(=O)[C@@H](CCCNC(=N)N)NC(=O)[C@@H](CCCCN)NC(=O)[C@@H](CCC(N)=O)NC(=O)[C@@H](Cc1ccc(O)cc1)NC(=O)CNC(=O)[C@@H](CC(C)C)NC(=O)[C@@H](CS)NC(=O)[C@@H](CS)NC(=O)[C@@H](CCCCN)NC(=O)[C@@H](CC(=O)O)NC(=O)[C@H]1CCCN1C(=O)[C@@H](CCCNC(=N)N)NC(=O)[C@@H](Cc1c[nH]cn1)NC(=O)[C@@H](Cc1c[nH]c2ccccc12)NC(=O)[C@@H](CO)NC(=O)[C@@H](C)NC(=O)CNC(=O)[C@H](N)CC(C)C)C(=O)O [HC4319] (I: H-[dL]G[dA][dS][dW][dH][dR][dP][dD][dK][dC][dC][dL]G[dY][dQ][dK][dR][dP][dL][dP][dK]-OH / II: H-[dL]G[dA][dS][dW][dH][dR][dP][dD][dK]; amide I:22-II:C; N-terminus and C-terminus assumed) | +++ | +++ | ++ (10–29% reduction compared with wild-type CXCR4) | + (30–60% reduction compared with wild-type CXCR4) | +++ | ++ (10–29% reduction compared with wild-type CXCR4) | +++ | ++ (10–29% reduction compared with wild-type CXCR4) | + (30–60% reduction compared with wild-type CXCR4) | + (30–60% reduction compared with wild-type CXCR4) | +++ |  | 
2 | 135 ± 63.9 | CC(C)NCCCC[C@H](NC(=O)[C@H]1CCC(=O)N[C@@H](Cc2ccccc2)C(=O)N[C@@H](Cc2ccc(O)cc2)C(=O)N[C@@H](CCCCNC(C)C)C(=O)N[C@H](CCCNC(=N)N)C(=O)N[C@@H](Cc2ccc3ccccc3c2)C(=O)NCC(=O)N1)C(N)=O [LY2510924] (FY[Lys(iPr)][dR][2Nal]G[dE][Lys(iPr)]-NH2; lactam N-7 (inferred)) | + (30–60% reduction compared with wild-type CXCR4) |  |  | + (30–60% reduction compared with wild-type CXCR4) | +++ | +++ |  | ++ (10–29% reduction compared with wild-type CXCR4) |  |  |  | subnanomolar | + (30–60% reduction compared with wild-type CXCR4)
